Where “and” joins values, the source holds several entries; their conditions need not be identical. Equal values may be shown once.

Data on two molecules can be found in PMC10541198, “Specific quinone reductase 2 inhibitors reduce metabolic burden and reverse Alzheimer’s disease phenotype in mice” (The Journal of Clinical Investigation, 2023).

In one series the test system is Amyloid β 42. Nature of the series: Amyloid β 42 ELISA, whole brain soluble and insoluble fractions. It counts as in vivo, mouse. Also noted: Sup. Fig. 6-6A, individual animal values / Sup. Fig. 6-6B, individual animal values / Sup. Fig. 6-6D, individual animal values / Sup. Fig. 6-6G, individual animal values / Sup. Fig. 6-6H, individual animal values: unit not given here. As to conditions: for Insoluble amyloid β 42 / Ratio of soluble- to insoluble amyloid β 42 / Soluble amyloid β 42: whole brain, 5xFAD 1 month. The method, then: Following completion of treatment with YB-537 or vehicle for 1 month in drinking water, mice were sacrificed, and brains were quickly removed and placed on ice. Brains were then bisected, and the cerebellum removed. Both hemispheres were then flash frozen in liquid nitrogen, with one hemisphere being used for Amyloid β 42 detection and the other used for WB. For Amyloid β 42 detection the hemisphere was first weighed, and then homogenised on ice using 1 mL of 0.1% Triton X-100 in TBS with complete protease inhibitor (Roche) and phosphatase inhibitor cocktail (Roche). Homogenates were then centrifuged at 100,000g for 1 h at 4° C, and supernatant containing t he soluble fraction of Amyloid β 42 was collected and stored at - 20° C overnight. The pellet, containing insoluble Amyloid β 42 was re - suspended in 1 mL of 5M guanidine HCl, placed on a rocker at RT f or 2h, and then stored overnight at 4° C, with later storage being done at -20° C. The insoluble fraction was then diluted 1:5 in TBS, and centrifuged for 30 min at 13,000g and 4° C. The resulting supernatant was then used to quantify the insoluble fraction. Protein determination was done on both soluble and insoluble fractions thus prepared, using a BCA kit (Thermo). Human Amyloid (aa1- 42) Quantikine ELISA Kit was then used as per the manufacturer’s instructions (R&D Systems, DAB142). Results obtained were then quantified as ng Amyloid β 42 / mL sample / brain hemisphere weight.
Experimental grouping was randomly allocated, in both rats and mice. The size for each group was based on previously published results by means of similar methods, with the use of an online power calculator (https://www.stat.ubc.ca/~rollin/stats/ssize/n2.html). Shapiro- Wilk normality tests were done for the collected data. Anal ysi s of normally distributed dat a was done using par am et ri c t ests (i .e. - unpaired students t-test, one-way ANOVA followed by Tukey’s or Sidak post hoc anal ys i s) and for data not normally
Background: An ELISA detects its analyte on a solid surface through an enzyme-linked reagent.

A further series concerns Sprague Dawley rats. Nature of the series: Incidental novel taste learning, microinjection to anterior insular cortex. It counts as in vivo, rat. As to conditions: 1 μL of 20 μM to aIC. The method, then: In order to evaluate the efficacy of some of the leading QR2is in vivo, we carried out double-blind experiments using 2 different modalities (Supplemental Methods), measuring memory that is dependent on different brain areas. First, cortical memory was tested using incidental novel taste learning (see Methods), in which an unfamiliar, but palatable and safe, taste is given for the first time, and the memory for this newly learned taste is then assessed 2 days later. This is done by measuring the volume of the taste consumed upon subsequent exposure to it ([32]) (Figure 4A). […] Next, hippocampal-dependent learning was evaluated using delay fear conditioning (DFC; see Methods) ([33]). […] In order to evaluate any possible effect of acute QR2i microinjection on metabolic stress in the mouse brain, ISR activation was measured by quantifying total and phosphorylated eukaryotic initiation factor 2 α (eIF2α) levels (Supplemental Figure 3A) and lipid peroxidation product, 4-hydroxynonenal (4-HNE; Supplemental Figure 3B), by immunoblot 3 hours after the injection.
Rats were taught to drink from 2 pipettes each filled with 10 mL of water during a 20 minute period, over 3 days. […] The memory for the novel taste was then assessed after 20 minutes of liquid consumption by calculating a preference index as follows: (novel taste consumed/[novel taste consumed+water consumed]) × 100 ([32], [56]). […]

`Cc1ccc(-c2cn3cccc(C)c3n2)cc1S(=O)(=O)N1CCNCC1` [YB-537]: in the series with Amyloid β 42 (5xFAD whole brain, all animals), the “Sup. Fig. 6-6A, individual animal values” was 0.36 and 0.35 and 1.82 and 1.07 and 0.33 and 5.68 and 2.65 and 2.02 and 0.56; the “Sup. Fig. 6-6B, individual animal values” was 31.16 and 54.15 and 11052.63 and 8070.79 and 40.92 and 4330.77 and 6642.89 and 15767.97 and 26.71. In addition, in the series on Amyloid β 42 (5xFAD whole brain, all animals, ratio of 6-6A to 6-6B values), the “Sup. Fig. 6-6C, individual animal values” is 0.0114 and 0.0064 and 0.000165 and 0.000133 and 0.0080 and 0.0013 and 0.0004 and 0.000128 and 0.0210. Further, the “Sup. Fig. 6-6D, individual animal values” in the series on Amyloid β 42 (5xFAD whole brain, first subset of the 6-6A animals (sex not given)) is 1.07 and 0.33 and 5.68 and 2.65 and 0.56 and 0.35. Also, the “Sup. Fig. 6-6F, individual animal values” in the series on Amyloid β 42 (5xFAD whole brain, first subset of the 6-6C animals (sex not given), ratio) is 0.000133 and 0.0080 and 0.0013 and 0.0004 and 0.0210 and 0.0064. Also, in the series on Amyloid β 42 (5xFAD whole brain, second subset of the 6-6A animals (sex not given)), the “Sup. Fig. 6-6G, individual animal values” is 2.02 and 0.36 and 1.82. Moreover, the “Sup. Fig. 6-6H, individual animal values” in the series with Amyloid β 42 (5xFAD whole brain, second subset of the 6-6B animals (sex not given)) is 15767.97 and 31.16 and 11052.63. The “Sup. Fig. 6-6I, individual animal values” in the series on Amyloid β 42 (5xFAD whole brain, second subset of the 6-6C animals (sex not given), ratio) was 0.000128 and 0.0114 and 0.000165. In addition, in the series on Amyloid β 42 (both sexes), the “Insoluble amyloid β 42” value is on record as “insignificantly reduced”, the “Ratio of soluble- to insoluble amyloid β 42” value is “insignificantly increased” and the “Soluble amyloid β 42” value is reported as “insignificantly reduced”. In the series on Amyloid β 42 (female), the “Insoluble amyloid β 42” value is reported as “insignificantly reduced” and the “Soluble amyloid β 42” value is given as “insignificantly reduced”. For the same molecule, in the series on Amyloid β 42 (male), the “Insoluble amyloid β 42” value was “insignificantly reduced”, the “Ratio of soluble- to insoluble amyloid β 42” value is listed as “insignificantly increased” and the “Soluble amyloid β 42” value is listed as “insignificantly reduced”.

Turning to `Cc1ccc(-c2cn3cccc(C)c3n2)cc1S(=O)(=O)N1CCCC1` [YB-808], in the series with Sprague Dawley rats, the “NaCl preference (individual rats)” value was 38.6905 and 81.6144 and 53.3708 and 75.5102 and 61.3924 and 79.4286 and 85.6322 and 50.9317 and 62.1118 and 87.6289 and 81.5476 and 81.8182 and 84.5161 and 50.3067 and 72.807 and 50.2703 and 76.5766 and 61.9048.
